The results in this text go back to publication PMC4844368 (The Biochemical journal, 2015).

Positions count from the first letter of the chain named.

In series [1] the target is T1, TRB2 (Homo sapiens, UniProt Q92519).
T1 sequence (Q92519 1-343): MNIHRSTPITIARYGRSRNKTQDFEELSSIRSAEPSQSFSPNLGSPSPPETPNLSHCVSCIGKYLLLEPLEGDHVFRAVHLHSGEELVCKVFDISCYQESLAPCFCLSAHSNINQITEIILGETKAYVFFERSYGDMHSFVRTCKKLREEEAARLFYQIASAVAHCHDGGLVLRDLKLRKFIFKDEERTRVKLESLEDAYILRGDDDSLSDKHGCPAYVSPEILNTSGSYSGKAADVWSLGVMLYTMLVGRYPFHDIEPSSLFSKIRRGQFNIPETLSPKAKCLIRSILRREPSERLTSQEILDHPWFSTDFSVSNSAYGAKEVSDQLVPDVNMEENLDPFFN
Put plainly: intrinsic fluorescence thermal shift. It counts as binding. The conditions noted are these: 1 mM ATP, 2 mM EDTA, TRB buffer pH 9.0.

The next series has as its target T2, CASK (Homo sapiens, UniProt O14936).
T2 sequence (O14936 1-337): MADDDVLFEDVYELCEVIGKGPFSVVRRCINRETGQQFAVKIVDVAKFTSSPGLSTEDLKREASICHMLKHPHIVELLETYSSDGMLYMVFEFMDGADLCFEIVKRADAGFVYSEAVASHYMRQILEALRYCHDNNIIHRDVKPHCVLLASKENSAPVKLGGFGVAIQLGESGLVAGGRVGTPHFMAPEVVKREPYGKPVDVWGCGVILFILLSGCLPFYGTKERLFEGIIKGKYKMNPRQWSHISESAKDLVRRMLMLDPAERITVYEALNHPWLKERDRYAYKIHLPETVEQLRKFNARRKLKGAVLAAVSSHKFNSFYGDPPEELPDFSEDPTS
Put plainly: Sypro Orange thermal shift. It is filed as binding. The conditions noted are these: ATP dose series, 2 mM EDTA, TRB buffer pH 9.0.

For another series, the target named is T3, Aurora A (Homo sapiens, UniProt O14965).
T3 sequence (O14965 1-403): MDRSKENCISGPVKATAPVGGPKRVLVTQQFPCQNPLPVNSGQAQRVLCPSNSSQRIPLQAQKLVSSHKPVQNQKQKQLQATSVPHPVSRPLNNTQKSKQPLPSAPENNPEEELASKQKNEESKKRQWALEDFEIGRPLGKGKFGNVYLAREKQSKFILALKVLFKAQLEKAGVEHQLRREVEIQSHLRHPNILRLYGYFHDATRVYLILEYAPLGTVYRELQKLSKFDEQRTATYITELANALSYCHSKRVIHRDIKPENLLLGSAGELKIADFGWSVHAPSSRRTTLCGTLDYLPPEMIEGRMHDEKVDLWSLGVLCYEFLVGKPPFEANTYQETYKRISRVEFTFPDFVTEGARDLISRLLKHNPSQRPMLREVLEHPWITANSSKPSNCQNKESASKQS
Put plainly: intrinsic fluorescence thermal shift. It is filed as binding. The conditions noted are these: 1 mM ATP, 10 mM Mg2+, no EDTA, TRB buffer pH 9.0.

Series [2] deals with T4, TRB2 (Homo sapiens, UniProt Q92519, K90A).
T4 sequence (Q92519 1-343 K90A): T1 sequence (Q92519 1-343) with K90A
Put plainly: intrinsic fluorescence thermal shift. It counts as binding. The conditions noted are these: 1 mM ATP, 2 mM EDTA, TRB buffer pH 9.0.

Series [3] addresses T5, TRB2 (Homo sapiens, UniProt Q92519, K90M).
T5 sequence (Q92519 1-343 K90M): T1 sequence (Q92519 1-343) with K90M
Put plainly: intrinsic fluorescence thermal shift. It counts as binding. To be noted: 1 mM ATP, 2 mM EDTA, TRB buffer pH 9.0.

Substrate in the series “purified protein”: Nc1ncnc2c1ncn2[C@@H]1O[C@H](COP(=O)(O)OP(=O)(O)OP(=O)(O)O)[C@@H](O)[C@H]1O
The experiment in a line: purified protein. It is filed as biochemical, Homo sapiens. The conditions noted are these: co-substrate histone H3; Mg2+-ATP.

As a reminder, the ΔTm is the shift of the melting midpoint relative to a reference. Consider `Nc1ncnc2c1ncn2[C@@H]1O[C@H](COP(=O)(O)OP(=O)(O)OP(=O)(O)O)[C@@H](O)[C@H]1O` [ATP], for which the ΔTm at TRB2 [1] is 3.64 °C; at CASK, “both CASK and TRB2 exhibited demonstrable dose-dependent binding to ATP”; on Aurora A it was 2.99 °C; at TRB2 [2], 0.23 °C; at TRB2 [3], 1.59 °C.

B1: Aurora A (Homo sapiens) (protein)
chain: T3 sequence (O14965 1-403)
In general, Km refers to the substrate concentration at which the rate is half of its maximum. In the case of B1, the Km in the series “purified protein” came to 14.3 ± 2.6 µM.
